Tested on: human peripheral blood cells (lymphocytes)
Test: γδT lymphocyte proliferation induction, BrdU labeling after 3 days of culture
Assay type: cell-based
Parameters: key to cytotoxicity: *: cytotoxicity
Details: 3 days culture; for % stimulation relative to the control: BrdU
Protocol: The γδT lymphocyte proliferation-inducing activity is tested in the following way: human peripheral blood cells are cultured in the presence of an RPMI-type culture medium supplemented with L-glutamine (2 mM), penicillin/streptomycin (50 μg/50 IU/ml) and foetal calf serum (10%). The C-glycoside derivatives 1 and 2 are added at various concentrations (10 to 0.05 mM), along with phytohemagglutin (PHA at […]), a positive control for total lymphocyte proliferation.

Row | Structure (SMILES) | % stimulation relative to the control (0.05 mM) | % stimulation relative to the control (0.1 mM) | % stimulation relative to the control (0.5 mM) | % stimulation relative to the control (1 mM) | % stimulation relative to the control (5 mM) | % stimulation relative to the control (10 mM) | cytotoxicity (5 mM) | cytotoxicity (10 mM)
1 | CC(=O)C[C@@H]1O[C@H](CO)[C@@H](O)[C@H](O)[C@H]1O [Compound 2, 1-(C-β-D-glucopyranosyl)propan-2-one] | 64% | 76% | 90% | 123% | 227% | 224% | – | –
2 | CC(=O)C[C@@H]1OC[C@@H](O)[C@H](O)[C@H]1O [Compound 1, 1-(C-β-D-xylopyranosyl)propan-2-one] | 108% | 115% | 84% | 131% | 106% | 74% | * | *

— patent publication US20070265210A1, “Administration of C-glycoside compounds for protecting and/or activating gammadeltaT lymphocytes” (L'OREAL, priority 2006, published 2007)
